Measured values reported in patent US6015822A, “Sulfonamide-substituted fused 5-membered ring compounds, their use as a medicament, and pharmaceutical preparations comprising them” (Hoechst Marion Roussel Deutschland GmbH, priority 1997, dated 2000).

target: T1, human IsK protein (UniProt P15382+P70057); assay: Inhibition of IsK current in Xenopus oocytes expressing human IsK (two microelectrode voltage clamp); assay type: cell-based; settings: human IsK expressed in Xenopus oocytes; voltage jumps to -10 mV lasting 15 s; pH 7.5; room temperature; extrapolated using the Hill equation; read-out: IC-50 (inhibition of IsK control current)
T1 construct: expressed in transfected cells; host or cells: Xenopus laevis oocytes injected with in vitro synthesized IsK RNA
T1 sequence (P70057 whole entry): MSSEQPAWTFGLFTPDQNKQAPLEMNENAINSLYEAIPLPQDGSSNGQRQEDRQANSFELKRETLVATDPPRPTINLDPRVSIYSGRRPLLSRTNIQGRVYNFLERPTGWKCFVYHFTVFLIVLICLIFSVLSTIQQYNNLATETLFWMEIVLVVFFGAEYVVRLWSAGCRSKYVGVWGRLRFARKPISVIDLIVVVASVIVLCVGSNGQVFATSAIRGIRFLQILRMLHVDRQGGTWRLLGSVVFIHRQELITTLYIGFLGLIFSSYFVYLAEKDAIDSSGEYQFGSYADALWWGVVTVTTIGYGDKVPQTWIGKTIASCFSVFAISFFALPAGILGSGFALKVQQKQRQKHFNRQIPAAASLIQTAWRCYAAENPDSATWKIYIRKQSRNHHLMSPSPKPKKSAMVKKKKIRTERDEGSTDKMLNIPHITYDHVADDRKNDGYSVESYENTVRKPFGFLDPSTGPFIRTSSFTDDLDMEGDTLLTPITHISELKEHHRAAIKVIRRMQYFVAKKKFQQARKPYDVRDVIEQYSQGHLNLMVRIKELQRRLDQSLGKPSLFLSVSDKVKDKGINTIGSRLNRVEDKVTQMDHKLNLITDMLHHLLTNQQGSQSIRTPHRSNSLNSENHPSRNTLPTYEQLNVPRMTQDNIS
Description: IsK channels from man, rat or guinea-pig were expressed in Xenopus oocytes. To do this, oocytes were first isolated from Xenopus Laevis and defolliculated. IsK -encoding RNA synthesized in vitro was then injected into these oocytes. After IsK protein expression for 2-8 days, IsK currents were measured in the oocytes using the two microelectrode voltage clamp technique. The IsK channels were in this case as a rule activated using voltage jumps to -10 mV lasting 15 s. The bath was irrigated with a solution of the following composition: NaCl 96 mM, KCl 2 mM, CaCl2 1.8 mM, MgCl2 1 mM, HEPES 5 mM (titrated with NaOH to pH 7.5). These experiments were carried out at room temperature. The following were employed for acquiring data and analysis: Geneclamp amplifier (Axon Instruments, Foster City, U.S.A.) and MacLab D/A converter and software (ADInstruments, Castle Hill, Australia). The substances according to the invention were tested by adding them to the bath solution in different concentrations. The effects of the substances were calculated as the percentage inhibition of the IsK control current, which was obtained when no substance was added to the solution. The data were then extrapolated using the Hill equation in order to determine the inhibitory concentrations IC50 for the respective substances.
In the described manner, using the human IsK protein, the following IC50 values were determined for the compounds according to the invention: […]

IC50 [µM]	Structure (SMILES)
~15	CCS(=O)(=O)N(C)C1CC(C)(C)c2ccccc21 (stereo not shown) [Example 2, 3,3-Dimethyl-1-(N-ethylsulfonyl-N-methyl)aminoindan]
< 10	CCCCCCN(C1CC(C)(C)c2ccccc21)S(C)(=O)=O (stereo not shown) [Example 3, 3,3-Dimethyl-1-(N-hexyl-N-methylsulfonyl)aminoindan]
> 10	CCCCN(C1CS(=O)(=O)c2ccccc21)S(C)(=O)=O (stereo not shown) [Example 5, N-Butyl-N-(1,1-dioxo-2,3-dihydro-1H-benzo[b]thiophen-3-yl)-methanesulfonamide]
2.7	CCCCN(C1CC(C)(C)c2ccc([N+](=O)[O-])cc21)S(C)(=O)=O (stereo not shown) [Example 11, 3,3-Dimethyl-6-nitro-1-(N-butyl-N-methylsulfonyl)aminoindan]
~2	CC1(C)CC(N(Cc2ccncc2)S(C)(=O)=O)c2cc([N+](=O)[O-])ccc21 (stereo not shown) [Example 12, 3,3-Dimethyl-6-nitro-1-[N-(4-pyridylmethyl)-N-methylsulfonyl]aminoindan]

Structure (SMILES)	IC50 [µM]
CCCCOc1ccc2c(c1)C(N(C)S(C)(=O)=O)CC2(C)C (stereo not shown) [Example 13, 6-Butoxy-3,3-dimethyl-1-(N-methyl-N-methylsulfonyl)aminoindan]	1.2
CCCCOc1ccc2c(c1)C(N(CC)S(C)(=O)=O)CC2(C)C (stereo not shown) [Example 14, 6-Butoxy-3,3-dimethyl-1-(N-ethyl-N-methylsulfonyl)aminoindan]	0.44
